# According to ChEMBL document CHEMBL1201862, “PubChem BioAssay data set” (2004):
# Calls of active or inactive are those of the source.
# Key:
# [1] = HepG2 cell cytotoxicity, dose response, cytotoxicity control, ATP luminescence, cherry-pick, set 6 (AID 1053125); format: functional, cell-based
# [2] = cells; details: HEK293
# [3] = target: T1, Heat shock factor protein 1 (Mus musculus, UniProt P38532); assay: HSF1 potentiators in luciferase reporter cells, confirmation, cell-based, NIH3T3, luminescence, dose retest (AID 435004); format: functional;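 also: stress induced by proteasome inhibitor MG132 added 30 min after compound; luciferase reporter driven by HSF1 response element in NIH3T3 cells; actives raise luminescence as potentiators of the MG132 stress response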
# T1 sequence (P38532 whole entry): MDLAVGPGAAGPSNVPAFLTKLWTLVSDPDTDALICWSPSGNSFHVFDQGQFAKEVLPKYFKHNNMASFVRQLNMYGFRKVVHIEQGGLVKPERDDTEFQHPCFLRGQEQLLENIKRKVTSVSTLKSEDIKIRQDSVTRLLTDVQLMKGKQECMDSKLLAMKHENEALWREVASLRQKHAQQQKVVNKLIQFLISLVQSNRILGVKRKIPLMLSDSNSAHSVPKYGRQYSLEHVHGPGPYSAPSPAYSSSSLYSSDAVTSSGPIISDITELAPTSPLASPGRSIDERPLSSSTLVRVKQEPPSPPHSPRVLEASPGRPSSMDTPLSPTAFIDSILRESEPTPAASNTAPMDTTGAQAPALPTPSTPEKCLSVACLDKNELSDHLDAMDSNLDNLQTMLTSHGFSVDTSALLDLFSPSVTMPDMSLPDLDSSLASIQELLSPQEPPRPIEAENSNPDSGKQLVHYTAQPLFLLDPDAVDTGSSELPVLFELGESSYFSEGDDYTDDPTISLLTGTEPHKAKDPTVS
# [4] = target: COUP transcription factor 2 (Homo sapiens, UniProt P24468); assay: Luminescence-based cell-based high throughput dose response assay to identify inhibitors of COUP-TFII (NR2F2).; format: functional;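 also: HEK293 cells transiently cotransfected with COUP-TFII expression vector and reporter; luciferase reporter luminescence driven by COUP-TFII from the pX2-168 reporter plasmid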
# [5] = growth suppression of PTEN-null colon cells, dose response, cell-based, HCT116 PTEN knockout (AID 1047); format: functional;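 also: HCT116 colon tumor cells with PTEN knocked out; cells exposed to compound for 60 hours before readout; potency for loss of cell viability measured by luminescence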
# [6] = growth suppression of beta-catenin-knockout colon cells, dose response, cell-based, HCT116, human colon tumor (AID 1045); format: functional;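 also: HCT116 colon tumor cells with beta catenin knocked out; cells exposed to compound for 60 hours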
# [7] = target: T2, Protein skinhead-1 (Caenorhabditis elegans, UniProt P34707); format: functional
# T2 sequence (P34707 whole entry): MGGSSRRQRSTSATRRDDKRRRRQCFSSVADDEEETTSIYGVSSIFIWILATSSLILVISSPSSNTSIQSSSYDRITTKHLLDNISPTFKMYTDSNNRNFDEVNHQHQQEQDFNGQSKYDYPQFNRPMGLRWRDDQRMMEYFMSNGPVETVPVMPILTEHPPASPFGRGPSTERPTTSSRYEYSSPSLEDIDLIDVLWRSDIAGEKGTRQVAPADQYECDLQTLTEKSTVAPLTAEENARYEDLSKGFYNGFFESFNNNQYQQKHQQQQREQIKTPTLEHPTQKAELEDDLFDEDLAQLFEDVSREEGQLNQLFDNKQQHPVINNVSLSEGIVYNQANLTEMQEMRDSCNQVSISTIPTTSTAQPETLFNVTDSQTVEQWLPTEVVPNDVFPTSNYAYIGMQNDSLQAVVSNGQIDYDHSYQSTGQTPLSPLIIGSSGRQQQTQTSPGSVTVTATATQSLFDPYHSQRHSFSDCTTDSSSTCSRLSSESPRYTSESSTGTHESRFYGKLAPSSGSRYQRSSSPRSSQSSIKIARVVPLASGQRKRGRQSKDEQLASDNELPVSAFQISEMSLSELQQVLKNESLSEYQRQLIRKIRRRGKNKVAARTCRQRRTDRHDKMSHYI
# [8] = inhibitors of PGC1a acetylation in cells, dose response, cell-based, cherry-picked samples (AID 720514); format: functional;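 also: potency may reflect raised or lowered acetylation signal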
# [9] = ADAM10 inhibitors, peptide cleavage, dose response, biochemical, QFRET (AID 743254);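 also: ADAM10 enzyme with the DM2 quenched FRET peptide as substrate; EDANS fluorescence gain as the protease cuts the substrate; inhibitor potency against ADAM10 proteolytic activity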
# [10] = target: T3, Disintegrin and metalloproteinase domain-containing protein 17 (Homo sapiens, UniProt P78536); assay: ADAM17 protease inhibitors, dose response, counter-screen for ADAM10 exosite inhibitor project, biochemical, quenched FRET substrate (AID 743253)
# [11] = Fluorescence-based cell-based high throughput dose response assay for inhibitors of the interaction of nucleotide-binding oligomerization domain containing 2 (NOD2) and the receptor-interacting serine-threonine kinase 2 (RIPK2).; format: functional; details: Homo sapiens
# [12] = target: Paired box protein Pax-8 (Homo sapiens, UniProt Q06710); assay: inhibitors of PAX8-driven TPO luciferase reporter, dose response, RMG-I cells, cherry-pick (AID 687027); format: functional, cell-based;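 also: luciferase reporter driven by Pax8 target thyroperoxidase promoter measured by SteadyGlo luminescence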
# [13] = PAX2 cell-based inhibition, dose response, selectivity assay for PAX8 inhibitor project, plate reader, dry powder samples (AID 743048); format: functional;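 also: HEK293 cells carrying a WT1 promoter luciferase reporter driven by expressed Pax2; potency is for inhibition of Pax2 driven reporter signal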
# [14] = cytotoxicity in COV362 ovarian cancer cells, dose response, cytotoxicity control for PAX8 inhibitor project, cell-based, plate reader, dry powder, SA12 (AID 743144); format: functional
# [15] = IOSE-T80 ovarian epithelial cell cytotoxicity, dose response, cytotoxicity control for PAX8 inhibitor project, plate reader, dry powder samples (AID 743045); format: functional, cell-based
# [16] = A2780 ovarian cancer cell cytotoxicity, dose response, cytotoxicity control, plate reader, dry powder samples (AID 743046); format: functional, cell-based
# [17] = NIH:OVCAR-3 ovarian cancer cell cytotoxicity, dose response, PAX8 inhibitor project, plate reader, dry powder samples (AID 743044); format: functional, cell-based
# [18] = PAX5 activity inhibitors, dose response, selectivity assay for PAX8 inhibitor project, cell-based, plate reader, dry powder samples (AID 743047); format: functional;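 also: HEK293 cells carrying a Pax5 driven CD19 promoter luciferase reporter; potency of inhibitors that lower reporter luminescence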
# [19] = IGROV1 ovarian cancer cell cytotoxicity, dose response, PAX8 inhibitor project, plate reader, dry powder samples (AID 743043); format: functional, cell-based; details: IGROV-1
# [20] = cytotoxicity in OVCAR4 cells, dose response, cytotoxicity control for PAX8 inhibitor project, cell-based, plate reader, dry powder, SA11 (AID 743150); format: functional; details: OVCAR-4
# [21] = cytotoxicity in COV434 cells, dose response, cytotoxicity control for PAX8 inhibitor project, cell-based, plate reader, dry powder, SA7 (AID 743145); format: functional
# [22] = cytotoxicity in OV-90 ovarian cancer cells, dose response, PAX8 inhibitor project, cell-based, plate reader, dry powder, SA8 (AID 743149); format: functional
# [23] = cytotoxicity dependent on PAX8, dose response, cell-based, plate reader, dry powder (AID 743049); format: functional
# [24] = target: fMet-Leu-Phe receptor (Homo sapiens, UniProt P21462); assay: FPR ligands, dose response (AID 519); format: functional
# [25] = target: NAD-dependent protein deacylase sirtuin-5, mitochondrial (Homo sapiens, UniProt Q9NXA8); assay: SIRT5 desuccinylase inhibitors, dose response, biochemical, fluorescence imaging, cherry-pick, set 5 (AID 720591);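 also: desuccinylation of succinyl peptide AMC substrate read as fluorescence after trypsin release; potency of inhibitors that lower fluorescence and may act on trypsin instead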
# [26] = inhibitors of HIV Env-driven cell fusion, dose response, cherry-pick (AID 652057); format: functional, cell-based
# [27] = system: HEK293; assay: HEK293T cell cytotoxicity, dose response, cytotoxicity control, ATP luminescence, cherry-pick samples (AID 687005); format: functional, cell-based; details: Homo sapiens;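 also: cells exposed to compound for 48 hours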
# [28] = inhibitors of clade B AD8 Env fusion, dose response, cell-based, cherry-pick (AID 652062); format: functional;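 also: luciferase signal from cell-cell fusion driven by HIV-1 clade B AD8 Env; potency is for inhibitors of fusion seen as a drop in luminescence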
# [29] = HIV Env cell-cell fusion inhibitors, dose response, HIV entry, plate reader, dry powder (AID 687023); format: functional, cell-based
# [30] = HEK293 Cytotoxicity Assay Measured in Cell-Based System Using Plate Reader - 7071-01_Inhibitor_Dose_CherryPick_Activity_Set2.; format: functional
# [31] = NIH/3T3 fibroblast cytotoxicity, dose response, cytotoxicity control, cell-based, plate reader, dry powder, set 2 (AID 652280); format: functional; details: NIH3T3
# [32] = T. cruzi growth inhibition in host cells, dose response, cell-based, plate reader, dry powder, set 2 (AID 652275); format: functional
# [33] = growth inhibition of intracellular T. cruzi, dose response, cell-based, plate reader, dry powder samples (AID 651845); format: functional
# [34] = NIH/3T3 fibroblast cytotoxicity, dose response, cytotoxicity control, cell-based, dry powder samples (AID 651844); format: functional; details: NIH3T3
# [35] = target: T3, Disintegrin and metalloproteinase domain-containing protein 17; assay: exosite inhibitors of ADAM17, dose response, biochemical (AID 743260)
# [36] = ADAM10 protease inhibitors, dose response, selectivity assay for ADAM17 exosite inhibitor project, biochemical, FRET peptide substrate, recombinant human ADAM10 (AID 743259);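 also: ADAM10 enzyme cleaving a FRET peptide substrate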
# [37] = inhibitors of non-replicating M. tuberculosis, dose response, luciferase, dry powder (AID 651619); format: functional; details: Mycobacterium tuberculosis
# [38] = inhibitors of non-replicating M. tuberculosis, dose response, luciferase, dry powder (AID 651620); format: functional; details: Mycobacterium tuberculosis
# [39] = growth inhibition of replicating M. tuberculosis, dose response, counter-screen, dry powder, IC90 (AID 651617); format: functional; details: Mycobacterium tuberculosis
# [40] = HEK293T cell cytotoxicity, dose response, cytotoxicity control, luminescence plate reader, powder samples, set 4 (AID 651863); format: functional, cell-based; details: HEK293
# [41] = MITF Orthogonal Assay: SK-MEL-5 CTG Assay Measured in Cell-Based System Using Plate Reader - 2084-02_Inhibitor_Dose_DryPowder_Activity_Set7.; format: functional
# [42] = MITF: Counter assay: A375 proliferation Measured in Cell-Based System Using Plate Reader - 2084-03_Inhibitor_Dose_DryPowder_Activity_Set8.; format: functional; details: A-375
# [43] = TRPM1 promoter luciferase reporter signal decrease, dose response, MITF inhibitor project, cell-based, SK-MEL-5, dry powder, set 8 (AID 624430); format: functional
# [44] = A375 melanoma cell viability loss, dose response, counter-screen for MITF inhibitor project, CellTiter-Glo luminescence, dry powder, set 4 (AID 624364); format: functional, cell-based; details: A-375;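 also: A375 melanoma cells are MITF independent so this is a counter screen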
# [45] = A375 melanoma cell cytotoxicity, dose response, counter-screen for MITF inhibitor project, CellTiter-Glo luminescence, dry powder, set 2 (AID 624489); format: functional, cell-based;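 also: actives are compounds lowering A375 viability meaning general cytotoxicity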
# [46] = CTGF mRNA reduction under YAP1 overexpression, dose response, mechanism study for YAP1 pathway inhibitor project, DLD1 cells, RT-qPCR, cherry-pick (AID 1053127); format: functional, cell-based; details: DLD-1
# [47] = YAP1 pathway inhibition via CTGF transcript levels, dose response, cell-based, DLD1 colon cancer, RT-qPCR, cherry-pick (AID 1053122); format: functional; details: Cancer cell lines
# [48] = P. falciparum Dd2 growth inhibitors, dose response, SYBR Green, cherry-picked samples (AID 1159567); format: functional, cell-based
# T3 sequence (P78536 whole entry, the tested form may be a part): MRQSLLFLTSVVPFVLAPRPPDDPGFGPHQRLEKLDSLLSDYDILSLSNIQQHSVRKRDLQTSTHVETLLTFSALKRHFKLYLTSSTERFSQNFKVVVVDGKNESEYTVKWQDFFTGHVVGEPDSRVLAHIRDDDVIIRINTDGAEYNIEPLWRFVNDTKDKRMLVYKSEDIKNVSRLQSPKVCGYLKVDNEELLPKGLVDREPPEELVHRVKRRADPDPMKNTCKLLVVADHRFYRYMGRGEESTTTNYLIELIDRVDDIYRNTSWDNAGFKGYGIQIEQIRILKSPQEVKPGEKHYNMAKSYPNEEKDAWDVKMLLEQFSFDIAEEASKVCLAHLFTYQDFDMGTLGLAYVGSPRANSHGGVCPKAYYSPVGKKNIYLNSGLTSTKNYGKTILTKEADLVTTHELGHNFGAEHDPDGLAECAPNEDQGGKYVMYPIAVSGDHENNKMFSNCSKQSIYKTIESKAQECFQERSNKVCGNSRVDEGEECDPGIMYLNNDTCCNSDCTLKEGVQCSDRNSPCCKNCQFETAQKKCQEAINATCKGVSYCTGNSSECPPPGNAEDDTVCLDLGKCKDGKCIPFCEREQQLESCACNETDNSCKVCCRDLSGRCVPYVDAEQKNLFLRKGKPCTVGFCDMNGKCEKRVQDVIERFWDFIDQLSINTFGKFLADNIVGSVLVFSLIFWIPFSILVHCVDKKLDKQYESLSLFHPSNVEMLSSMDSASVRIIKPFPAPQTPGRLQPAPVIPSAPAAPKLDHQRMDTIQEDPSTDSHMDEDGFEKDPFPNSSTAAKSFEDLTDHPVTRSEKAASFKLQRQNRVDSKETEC
# NAD-dependent protein deacylase sirtuin-5, mitochondrial, sequence (Q9NXA8 whole entry, the tested form may be a part): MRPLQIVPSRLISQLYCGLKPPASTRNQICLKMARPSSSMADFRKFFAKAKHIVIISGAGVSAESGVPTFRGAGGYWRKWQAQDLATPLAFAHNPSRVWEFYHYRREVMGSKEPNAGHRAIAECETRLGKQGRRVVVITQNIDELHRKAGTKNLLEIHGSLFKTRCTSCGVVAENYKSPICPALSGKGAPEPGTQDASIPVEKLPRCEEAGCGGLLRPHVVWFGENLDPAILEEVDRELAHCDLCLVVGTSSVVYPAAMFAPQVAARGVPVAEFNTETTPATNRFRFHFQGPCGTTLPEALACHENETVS
# fMet-Leu-Phe receptor, sequence (P21462 whole entry): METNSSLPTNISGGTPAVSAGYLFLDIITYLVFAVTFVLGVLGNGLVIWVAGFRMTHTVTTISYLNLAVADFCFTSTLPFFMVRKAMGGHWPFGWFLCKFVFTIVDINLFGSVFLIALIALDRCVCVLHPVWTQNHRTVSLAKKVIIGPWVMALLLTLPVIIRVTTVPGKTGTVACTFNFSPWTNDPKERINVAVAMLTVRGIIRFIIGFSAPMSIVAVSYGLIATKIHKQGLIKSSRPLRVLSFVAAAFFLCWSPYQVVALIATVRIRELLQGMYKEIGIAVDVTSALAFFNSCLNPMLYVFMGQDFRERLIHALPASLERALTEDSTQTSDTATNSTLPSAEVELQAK
# COUP transcription factor 2, sequence (P24468 whole entry): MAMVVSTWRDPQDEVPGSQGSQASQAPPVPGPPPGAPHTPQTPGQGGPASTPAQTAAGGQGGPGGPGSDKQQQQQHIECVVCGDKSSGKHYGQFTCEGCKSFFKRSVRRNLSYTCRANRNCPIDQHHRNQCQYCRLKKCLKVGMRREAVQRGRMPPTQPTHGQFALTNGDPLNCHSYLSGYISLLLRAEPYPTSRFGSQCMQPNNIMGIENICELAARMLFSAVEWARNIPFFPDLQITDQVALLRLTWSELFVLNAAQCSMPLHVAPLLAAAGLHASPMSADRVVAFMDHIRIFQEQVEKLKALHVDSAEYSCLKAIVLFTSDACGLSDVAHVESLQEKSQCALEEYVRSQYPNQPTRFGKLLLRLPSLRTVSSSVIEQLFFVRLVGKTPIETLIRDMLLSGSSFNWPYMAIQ
# Paired box protein Pax-8, sequence (Q06710 whole entry): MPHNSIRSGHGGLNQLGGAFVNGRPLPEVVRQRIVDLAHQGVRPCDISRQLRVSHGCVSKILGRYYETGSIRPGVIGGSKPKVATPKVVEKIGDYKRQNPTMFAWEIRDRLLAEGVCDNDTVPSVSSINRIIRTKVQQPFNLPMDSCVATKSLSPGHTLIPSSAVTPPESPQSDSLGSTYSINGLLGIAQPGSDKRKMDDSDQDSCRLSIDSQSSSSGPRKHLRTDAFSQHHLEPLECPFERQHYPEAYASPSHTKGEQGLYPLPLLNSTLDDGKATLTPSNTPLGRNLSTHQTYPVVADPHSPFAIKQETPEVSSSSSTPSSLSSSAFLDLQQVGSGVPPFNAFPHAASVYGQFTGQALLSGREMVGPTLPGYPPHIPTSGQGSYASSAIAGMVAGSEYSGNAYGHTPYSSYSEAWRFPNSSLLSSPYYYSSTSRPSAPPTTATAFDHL
structure (smiles),measurement,setting,value
Cc1ccc(OCC(=O)NNc2c3ccccc3nc3ccccc23)cc1,AC50,[1],> 52 µM (inactive)
same,AC50,[2],27.7 µM (active)
Cc1ccc(-n2nc3c(=O)n(C(C)C(=O)NCc4ccccc4Cl)nc(C)c3c2C)cc1 (centres undefined),EC50,[3],> 260 µM (inactive)
same,IC50,[4],11.9 µM (inactive)
Cc1[nH]c2ccccc2c1C(=O)/C=C/c1ccccc1,EC50,[5],22 µM (active)
same,EC50,[6],19.2 µM (active)
same,IC50,[7],> 100 µM (inactive)
same,AC50,[8],29.8 µM (active)
CCOC(=O)c1c(NC(=O)CN2C(=O)NC(C)(c3ccc(OC(F)F)cc3)C2=O)sc(C)c1C (centres undefined),IC50,[9],> 69.5 µM (inactive)
same,IC50,[10],> 69.5 µM (inactive)
Cc1cccc2sc(N(CCCN(C)C)C(=O)CCS(=O)(=O)c3ccccc3)nc12,IC50,[11],6.59 µM (active)
same,AC50,[12],6.18 µM (active)
same,AC50,[13],35.7 µM (active)
same,AC50,[14],20.3 µM (active)
same,AC50,[15],21.8 µM (active)
same,AC50,[16],6.9 µM (active)
same,AC50,[17],8.92 µM (active)
same,AC50,[18],43.1 µM (active)
same,AC50,[19],11.5 µM (active)
same,AC50,[20],34.8 µM (active)
same,AC50,[21],8.43 µM (active)
same,AC50,[22],17.1 µM (active)
same,AC50,[23],7.67 µM (active)
CCCC(=O)Nc1cc(-c2cn3cccnc3n2)ccc1OC,Ki,[24],> 66.7 µM (inactive)
CN(C)CCN(Cc1cccs1)S(=O)(=O)c1csc(C(N)=O)c1,AC50,[25],> 30 µM (inactive)
C[C@H]1CCCCO[C@@H](CN(C)Cc2ccncc2)[C@@H](C)CN([C@@H](C)CO)C(=O)c2cc(NC(=O)Nc3ccccc3)ccc2O1,AC50,[26],0.764 µM (active)
same,AC50,[27],33.2 µM (active)
same,AC50,[28],32.9 µM (active)
same,AC50,[29],10.7 µM (active)
same,AC50,[30],33.2 µM (active)
CC(C)N1C[C@H](C)[C@@H](CN(C)Cc2ccc(Oc3ccccc3)cc2)Oc2c(NC(=O)C3CCNCC3)cccc2C1=O,AC50,[31],8.99 µM (active)
same,AC50,[32],0.983 µM (active)
same,AC50,[33],0.983 µM (active)
same,AC50,[34],8.99 µM (active)
COC(=O)C1=C(C)N(Cc2cccc(C(F)(F)F)c2)C(NCc2ccc3c(c2)OCO3)=NC1c1ccc(F)cc1 (centres undefined),IC50,[35],> 69.5 µM (inactive)
same,IC50,[36],> 69.5 µM (inactive)
COCCSc1nnc(-c2ccccc2)o1,IC90,[37],4 µM (active)
same,IC90,[38],4 µM (active)
same,IC90,[39],16 µM (active)
Cc1cc(C)c(S(=O)(=O)Nc2ncnc3ccccc23)c(C)c1,AC50,[40],44.2 µM (active)
O=C1C=C(Nc2ccccc2Cl)C(=O)c2ccccc21,AC50,[41],0.172 µM (active)
same,AC50,[42],> 70 µM (inactive)
same,AC50,[43],5.41 µM (active)
O=C1C(Nc2ccccc2)=C(N2CCOCC2)C(=O)c2ccccc21,AC50,[44],> 70 µM (inactive)
same,AC50,[45],65.7 µM (active)
same,AC50,[45]; A-375,> 70 µM (inactive)
CO[C@@H]1CN(C)C(=O)c2ccc(NC(=O)c3nc4ccccc4s3)cc2OC[C@@H](C)N(Cc2cccnc2)C[C@H]1C,AC50,[46],19.6 µM (active)
same,AC50,[47],5.03 µM (active)
same,AC50,[48],4.6 µM (active)
